Experimental findings from patent publication US10376476B2, “Panicein compounds, compositions and uses thereof” (CENTRE NATIONAL DE LA RECHERCHE SCIENTIFIQUE, priority 2014, dated 2019) are described below.

Experiment [1] concerns the target T1, wild-type Patched (hPtc) expressed in yeasts (Homo sapiens, UniProt Q13635).
T1 construct: MAP; expressed in transfected cells; host or cells: Saccharomyces cerevisiae K699
T1 sequence (Q13635 1-1447): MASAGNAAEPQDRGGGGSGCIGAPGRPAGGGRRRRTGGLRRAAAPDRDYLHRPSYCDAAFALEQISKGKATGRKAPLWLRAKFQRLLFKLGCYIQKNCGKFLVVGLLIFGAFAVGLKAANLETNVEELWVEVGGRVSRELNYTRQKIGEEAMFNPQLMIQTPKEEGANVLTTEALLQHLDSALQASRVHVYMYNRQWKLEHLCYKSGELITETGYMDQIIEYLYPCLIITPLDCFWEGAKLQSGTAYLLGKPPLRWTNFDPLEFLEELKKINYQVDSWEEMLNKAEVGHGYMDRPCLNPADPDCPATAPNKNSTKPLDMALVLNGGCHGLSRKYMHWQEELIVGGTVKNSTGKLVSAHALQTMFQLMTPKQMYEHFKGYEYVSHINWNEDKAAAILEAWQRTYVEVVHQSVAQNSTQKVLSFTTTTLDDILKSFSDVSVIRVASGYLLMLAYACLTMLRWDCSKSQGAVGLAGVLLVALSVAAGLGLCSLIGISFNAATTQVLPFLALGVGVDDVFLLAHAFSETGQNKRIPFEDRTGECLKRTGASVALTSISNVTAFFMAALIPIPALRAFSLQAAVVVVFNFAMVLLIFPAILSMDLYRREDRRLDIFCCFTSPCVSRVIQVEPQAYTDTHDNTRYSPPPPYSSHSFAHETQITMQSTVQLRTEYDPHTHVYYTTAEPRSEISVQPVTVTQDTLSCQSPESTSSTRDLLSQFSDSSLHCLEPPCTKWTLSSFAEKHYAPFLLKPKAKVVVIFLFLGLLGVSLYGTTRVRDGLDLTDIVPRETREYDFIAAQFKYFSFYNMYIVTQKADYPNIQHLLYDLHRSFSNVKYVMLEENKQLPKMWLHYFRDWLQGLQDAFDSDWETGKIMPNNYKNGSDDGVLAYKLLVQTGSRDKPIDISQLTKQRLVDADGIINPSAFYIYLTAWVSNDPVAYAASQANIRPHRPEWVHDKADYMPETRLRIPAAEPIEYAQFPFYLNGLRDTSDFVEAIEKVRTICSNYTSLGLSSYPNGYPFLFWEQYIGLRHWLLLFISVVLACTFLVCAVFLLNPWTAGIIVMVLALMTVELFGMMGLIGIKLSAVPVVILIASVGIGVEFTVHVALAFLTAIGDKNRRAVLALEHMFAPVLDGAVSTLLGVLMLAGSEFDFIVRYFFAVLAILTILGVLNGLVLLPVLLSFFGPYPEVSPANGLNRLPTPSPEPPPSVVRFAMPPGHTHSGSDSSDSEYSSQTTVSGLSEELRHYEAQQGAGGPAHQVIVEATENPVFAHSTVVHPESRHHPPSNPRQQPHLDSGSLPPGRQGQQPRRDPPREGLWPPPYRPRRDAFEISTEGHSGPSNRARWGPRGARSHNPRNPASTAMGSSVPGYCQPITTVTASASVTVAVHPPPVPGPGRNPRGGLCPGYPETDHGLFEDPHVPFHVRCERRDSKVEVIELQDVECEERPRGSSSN
The experiment in a line: Doxorubicin efflux from yeasts (intracellular dxr fluorescence). In kind it is cell-based. As to conditions: for Efflux (%) of dxr: WT-hPtc-yeasts, 10 μM paniceins, 10 min, 5 mM 2-deoxy-D-glucose; for dxr fluorescence in hPtc-expressing yeasts after efflux: 10 μM paniceins during efflux, contrary to control yeasts. As for the experimental part: A. Compound P5 inhibits doxorubicin efflux from melanoma cells MeWo and A375. Cells were grown on cover-slips, incubated for 2 hour at 37° C. with 10 μM doxorubicin and quickly rinsed with phosphate buffer (pH 7.4). One cover-slip of each cell line was immediately fixed for doxorubicin charge control. The other cover-slips were incubated with buffer supplemented with DMSO or 10 μM of compound P5 30 min under gentle shaking and immediately fixed. Dxr intracellular fluorescence was visualized by epifluorescence and analyzed using Image J software on more than 30 cells of 3 different fields for each condition. The results were analyzed using the Student t test in which significance is attained at P<0.05 (**: P<0.005, ***: P<0.0005). B. Paniceins inhibit doxorubicin efflux from Patched-expressing yeasts. Yeasts expressing wild-type Patched (hPtc, in black), mutant Patched G509VD513Y (hPtcVXXXY, in grey), and control yeasts (in white) were incubated in buffer supplemented with 5 mM of 2-deoxy-D-glucose and 10 μM dxr for 2 hours at 4° C. After centrifugation and supernatant removing, one sample was immediately fixed for charge control and the other samples were resuspended in buffer containing 5 mM of 2-deoxy-D-glucose supplemented with DMSO or 10 μM of paniceins 10 minutes at 25° C. with gentle shaking. After centrifugation and supernatant removing, samples were fixed and deposited on coverslips for epifluorescence microscopy observation. Dxr intracellular fluorescence quantification was carried out using Image J software on more than 30 yeasts on 3 different fields for each condition. The results were analyzed using the Student t test in which significance is attained at P<0.05 (*).
On yeasts: Yeasts expressing Patched (hPtc), mutant Patched (hPtcG509VD513Y), or control yeasts were washed with cold water, resuspended at an OD600 of 10 in Hepes-NaOH buffer (pH 7.0) supplemented with 5 mM of 2-deoxy-D-glucose, and incubated with 10 μM doxorubicin for 2 hours at 4° C. in the cold room on a rotating wheel protected from light. Yeasts were centrifuged and the supernatant was removed. One sample was immediately fixed with 4% paraformaldehyde for doxorubicin loading control. The other samples were resuspended in Hepes-NaOH buffer (pH 7.0) containing 5 mM of 2-deoxy-D-glucose supplemented with DMSO or 10 μM of paniceins, and incubated 10 minutes at 20° C. with gentle shaking in a Benchmark Multi-therm shaker protected from light. Samples were centrifuged for 1 minute at 18,000 g, supernatants were removed and yeasts were fixed with 4% paraformaldehyde. 10 μL of each sample were deposited on a coverslip and observed by epifluorescence microscopy using an objective 63x and filters for Alexa 594. Quantification of doxorubicin intracellular fluorescence was carried out using Image J software on more than 30 yeasts on 3 different fields for each condition. The results were analyzed using the Student t test in which significance is attained at P <0.05.
In order to see if Paniceins inhibit dxr efflux through Patched inhibition, inventors compared dxr efflux on yeasts over-expressing human Patched and control yeasts. After loading with dxr, yeasts were centrifuged and fixed for dxr loading control (LC), or resuspended in buffer supplemented with DMSO or paniceins for efflux measurements. After 10 min a 20° C., yeasts were collected, fixed and deposited on cover-slips. 2-deoxy-D-glucose was added in buffer during loading and efflux in order to inhibit ATP-binding cassette (ABC) transporters. Dxr fluorescence intensity of at least 30 yeasts was measured for each experiment. FIGS. 6A and 12A show the mean fluorescence intensity of 3 independent experiments. […] This was confirmed using yeasts over-expressing Patched mutant VXXXY. […] Yeasts over-expressing hPtcVXXXY are less resistance to growth inhibition by dxr than yeasts over-expressing wild-type hPtc (Bidet et al., 2012).

The subject of experiment [2] is keratinocytes HaCaT. The experiment can be described thus: Doxorubicin efflux from cells (intracellular dxr fluorescence). Format: cell-based.

For `C/C(=C\Cc1cc(O)ccc1O)CCc1c(C)c(O)c(O)c(C=O)c1C` [P2, Panicein C], in experiment [1], the “Efflux (%) of dxr” value was found to be 51%.
With `C/C(=C\Cc1cc(O)ccc1O)CCc1c(C)cc(O)c(C=O)c1C` [P3, Panicein B3], in experiment [1], the “Efflux (%) of dxr” value was determined as 46%.
For `Cc1cc(O)c(C=O)c(C)c1CCC1(C)C=Cc2cc(O)ccc2O1` (stereo not shown) [P4, Panicein B2], in experiment [1], the “dxr fluorescence in hPtc-expressing yeasts after efflux” value was “significantly higher amounts of dxr fluorescence” and the “Efflux (%) of dxr” value is reported as 46%.
Turning to `COc1cc(C)c(CC/C(C)=C/Cc2cc(O)ccc2O)c(C)c1C` [P5, Panicein A hydroquinone], in experiment [1], the “dxr fluorescence in hPtc-expressing yeasts after efflux” value is reported as “significantly higher amounts of dxr fluorescence” and the “Efflux (%) of dxr” value turned out to be 40%. Also, the “increase of dxr in cells (dxr fluorescence intensity) after efflux” value in experiment [2] is “contrary to “healthy” keratinocytes HaCaT”.
